Series [1] in a line: Dynamic vapor sorption (DVS) hygroscopicity analysis. Type of series: physicochemical. The protocol: The obtained solid form of the salt was analyzed by dynamic vapor sorption (DVS), using a dynamic vapor sorption analyzer with a model IGA Sorp (Hidentity Isochema). The samples are measured in gradient mode and tested over a humidity range of 0% to 90% with 10% humidity increments for each gradient.
The compound has strong hygroscopicity and is not conducive to preservation. The obtained salt solid form was analyzed by using dynamic vapor sorption (DVS). The hygroscopicity comparison between the hydrochloride salt crystalline form A and the mesylate salt crystalline form C is compared.

Series [2] in a line: Stability of crystalline form during thermal treatment and grinding (XRPD). Type of series: physicochemical. As for the experimental part:
The crystalline form A was heated to 100° C. through programmed temperature or kept at 80° C. for 24 h in DSC.
A certain amount of hydrochloride salt crystalline form A was added to a mortar and ground at room temperature for 5 minutes.

The test system of series [3] is 17α-Ethinylestradiol (E2-17a) induced cholestasis in rats. Kind of series: 17α-ethinylestradiol (E2-17α) induced cholestasis in rats. Format: in vivo. The protocol:
Experimental method: E2-17α was administered by subcutaneous injection in the neck. The test compounds were administered by gavage for 7 days after modeling. After the last day of administration, the rats were fasted but had access to water. The experiment was performed on the next day, and treatment was performed after 24 h. The rats were anesthetized by intraperitoneal injection of 20% urethane (7 ml/kg). After anesthesia, the rats were fixed on a rat board to make a median abdominal incision from the xiphoid process of the upper abdomen downward, with a 3-4 cm incision. The common bile duct was isolated. A PE-10 polyethylene catheter (inner diameter: 0.28 mm, outer diameter: 0.61 mm) was used for intubation operation of the bile ducts. During the operation, the body […] was maintained between 37° C. and 38° C. with warm lamps and air conditioners to prevent changes in bile flow rate at low temperature. After the intubation was completed, the skin was sutured to prevent the water evaporation from the abdominal cavity. The other end of the bile duct cannula was drawn out and flowed into a fixed 0.2 mL collection tube, to consecutively perform collection every 15 min for 8 times.
Before the experiment, the weight of the bile collection tube was accurately weighed and recorded as B1. After the bile collection was completed in the experiment, the total weight of the bile and the collection tube was weighed and recorded as A2. The weight of bile in the tube was calculated by subtracting B1 from A2, and converted into volume according to 1 g/mL. The amount of bile secretion of rats in each group was expressed as mean±standard deviation (Mean±S.D). Bile Flow Rate (μL/Kg/Min)=(A2−B1)×1000000/Body Weight
The blood samples were allowed to stand for 2 h at room temperature, and centrifuged at 4000 rpm for 15 min. The serum was routinely separated to detect ALT, AST, and ALP. The left serum was aliquoted and frozen at −20° C. for subsequent detection.

Series [4] has as its system AMLN diet-induced NASH in ob/ob mice. Kind of series: AMLN diet-induced NASH in ob/ob mice. Format: in vivo. As for the experimental part:
Test method: (1) C57 mice and ob/ob mice were adaptively reared for 1 week. (1) The C57 mice were given LFD diet (normal mouse group), and the ob/ob mice were divided into two groups: (2) 15 mice were given LFD diet (blank control group), and the rest were given AMLN diet (containing 40 kcal % fat, 20 kcal % fructose and 2% cholesterol) for 14 weeks. (2) Sampling for pathology detection: C57+LFD diet group (n=3), ob/ob+ AMLN diet group (n=3), liver lesions were evaluated according to NAFLD activity score to estimate the degree of model construction; the mice in the ob/ob+ AMLN diet group were tested for fasting blood glucose (FBG); and blood was collected from the eye socket. The serum was separated, and ALT and insulin (INS) in the serum were detected. (3) Insulin resistance (HOMA-IR) was calculated according to HOMA-IR═INS(μ/mL)×FBG(mM)/22.5.

[5] abbreviates: AMLN diet-induced Lep^ob/Lep^ob mice NASH model.

Structures can show the parent of a compound that is named as a salt.

For `CC[C@@H]1C2C[C@H](O)CC[C@]2(C)C2CC[C@@]3(C)C(CC[C@@H]3[C@H](C)CCO[P@@]3(=O)OCC[C@@H](c4ccncc4)O3)C2[C@@H]1O.CS(=O)(=O)O` (stereo partly drawn) [mesylate salt crystalline form C], in series [1] (after moisture absorption), the “solid state (XRPD) after DVS” value is “changes to an amorphous form”.

As for `CC[C@@H]1C2C[C@H](O)CC[C@]2(C)C2CC[C@@]3(C)C(CC[C@@H]3[C@H](C)CCO[P@@]3(=O)OCC[C@@H](c4ccncc4)O3)C2[C@@H]1O` (stereo partly drawn) [hydrochloride salt crystalline form A], in series [2] (ground in a mortar at room temperature for 5 minutes), the XRPD after grinding result was “main diffraction peaks of the obtained samples have not changed”. For the same compound, the “XRPD after thermal treatment” value in series [2] (heated to 100° C. through programmed temperature or kept at 80° C. for 24 h in DSC) is reported as “main diffraction peaks of the obtained samples have not change”. In addition, the “Hygroscopicity at low humidity” value in series [1] (relative humidity lower than 75%) is listed as “small”. Besides, the “Hygroscopicity (DVS results)” value in series [1] (relative humidity of 80%) is “hygroscopicity was 3.569%”. For the same compound, the “overall hygroscopicity, compared between salt forms” value in series [1] (versus mesylate salt crystalline form C) is given as “lower than that of mesylate salt crystalline form C”.

Regarding `CC[C@@H]1C2C[C@H](O)CC[C@]2(C)C2CC[C@@]3(C)C(CC[C@@H]3[C@H](C)CCO[P@@]3(=O)OCC[C@@H](c4ccncc4)O3)C2[C@@H]1O` (stereo partly drawn) [hydrochloride salt of Compound 1], in series [3] (gavage for 7 days), the “strength for promoting bile excretion, compared with the E2-17α group” value is “significantly increased”. For the same compound, in series [3] (gavage for 7 days, hydrochloride salt prepared in Example 3), the “effect of promoting bile excretion, compared with Compound 1” value was “superior effect of promoting bile excretion over Compound 1”. For the same compound, the “biliary excretion amount after 120 minutes” value in series [3] (versus model group (E2-17α group)) is “still higher than that in the model group”. In addition, in series [4] (setting [5]), the hepatocyte ballooning entry was “reduce” and the intralobular inflammation entry was “reduce”. The “total score of NASH model” value in series [4] (AMLN diet-induced Lep^ob/Lep^ob mouse NASH model) is “significantly reduce”. Moreover, in series [4] (NASH mice), the “level of ALT in the serum” value is recorded as “significantly reduce”, the “level of AST in the serum” value is recorded as “significantly reduce” and the liver fibrosis result was “significantly reduce”.

These data come from patent US12331071B2, “Bile acid derivative salt, crystal structure thereof, preparation method therefor and use thereof” (XI'AN BIOCARE PHARMA LTD., priority 2020, dated 2025).
